Consider one substance from patent US20160066603A1, “FULVIC ACID AND DERIVATIVES AND METHODS OF PREPARATION AND USE” (EMPIRE TECHNOLOGY DEVELOPMENT LLC, priority 2013, published 2016).

The data set is classed as physicochemical. Here is the method:
The degradation products of Example 1, recovered after three hours of hydrolysis, were evaluated as antioxidants and thermal stabilizers for PVC, low density polyethylene (LDPE), and polyvinyl alcohol (PVA) to evaluate the anti-oxidation efficiency using thermal analysis techniques (DSC, TGA, and DTG). The thermooxidative enthalpy change from DSC curves (e.g. FIGS. 1-3) and the % of HCl loss as a function of temperature represent the stability of polyethylene and PVC respectively.
The mechanism of stabilizing PVC is based on capturing the evolved HCl from dehydrochlorination by the metal ions and the transition metal, accordingly deactivating the catalytic role of HCl in the thermal decomposition.

As for fulvic acid, the “Stability compared with the PVC control polymer” value was “more stable than the PVC control polymer”.
